Values joined by “and” are separate entries in the source; they are usually repeats but may differ in a detail not shown here. Equal values may be shown once. Read-outs that look alike come from different tables or passages of the source.
Tests used:
Experiment in all cases: SelectScreen kinase assay
HIPK1 (Myak) = HIPK1 (Myak) (Homo sapiens, UniProt Q86Z02); details: for Inhibition at 1 µM (%): HIPK1 (Myak), ZLYTE, ATP Km app
Procedure: (§1) Selectivity profiling assays were performed by the Invitrogen SelectScreen™ Services. […] The concentration of ATP was selected to be equal to the KM, unless indicated otherwise.

SYK = SYK (Homo sapiens, UniProt P43405)
Procedure: as §1

CDK1/cyclin B = CDK1/cyclin B (Homo sapiens, UniProt P06493); details: 1 h, 1 μM WEL028, 1 h preincubation
Procedure: as §1

LYN B = LYN B (Homo sapiens, UniProt P07948); details: for Inhibition at 1 µM (%): LYN B, ZLYTE, ATP Km app
Procedure: as §1

MAPK9 (JNK2) = MAPK9 (JNK2) (Homo sapiens, UniProt P45984)
Procedure: as §1

PRKACG (PRKAC gamma) = PRKACG (PRKAC gamma) (Homo sapiens, UniProt P22612); details: for Inhibition at 1 µM (%): PRKACG (PRKAC gamma), LanthaScreen Binding
Procedure: as §1

INSR = INSR (Homo sapiens, UniProt P06213)
Procedure: as §1

STK33 = STK33 (Homo sapiens, UniProt Q9BYT3)
Procedure: as §1

SRMS (Srm) = SRMS (Srm) (Homo sapiens, UniProt Q9H3Y6)
Procedure: as §1

PRKCA (PKC alpha) = PRKCA (PKC alpha) (Homo sapiens, UniProt P17252)
Procedure: as §1

MKNK2 (MNK2) = MKNK2 (MNK2) (Homo sapiens, UniProt Q9HBH9)
Procedure: as §1

TESK1 = TESK1 (Homo sapiens, UniProt Q15569)
Procedure: as §1

EPHB2 = molecular target: T1, EPHB2 (Homo sapiens, UniProt P29323); details: for Inhibition at 1 µM (%): EPHB2, ZLYTE, ATP Km app
T1 sequence (P29323 19-1055): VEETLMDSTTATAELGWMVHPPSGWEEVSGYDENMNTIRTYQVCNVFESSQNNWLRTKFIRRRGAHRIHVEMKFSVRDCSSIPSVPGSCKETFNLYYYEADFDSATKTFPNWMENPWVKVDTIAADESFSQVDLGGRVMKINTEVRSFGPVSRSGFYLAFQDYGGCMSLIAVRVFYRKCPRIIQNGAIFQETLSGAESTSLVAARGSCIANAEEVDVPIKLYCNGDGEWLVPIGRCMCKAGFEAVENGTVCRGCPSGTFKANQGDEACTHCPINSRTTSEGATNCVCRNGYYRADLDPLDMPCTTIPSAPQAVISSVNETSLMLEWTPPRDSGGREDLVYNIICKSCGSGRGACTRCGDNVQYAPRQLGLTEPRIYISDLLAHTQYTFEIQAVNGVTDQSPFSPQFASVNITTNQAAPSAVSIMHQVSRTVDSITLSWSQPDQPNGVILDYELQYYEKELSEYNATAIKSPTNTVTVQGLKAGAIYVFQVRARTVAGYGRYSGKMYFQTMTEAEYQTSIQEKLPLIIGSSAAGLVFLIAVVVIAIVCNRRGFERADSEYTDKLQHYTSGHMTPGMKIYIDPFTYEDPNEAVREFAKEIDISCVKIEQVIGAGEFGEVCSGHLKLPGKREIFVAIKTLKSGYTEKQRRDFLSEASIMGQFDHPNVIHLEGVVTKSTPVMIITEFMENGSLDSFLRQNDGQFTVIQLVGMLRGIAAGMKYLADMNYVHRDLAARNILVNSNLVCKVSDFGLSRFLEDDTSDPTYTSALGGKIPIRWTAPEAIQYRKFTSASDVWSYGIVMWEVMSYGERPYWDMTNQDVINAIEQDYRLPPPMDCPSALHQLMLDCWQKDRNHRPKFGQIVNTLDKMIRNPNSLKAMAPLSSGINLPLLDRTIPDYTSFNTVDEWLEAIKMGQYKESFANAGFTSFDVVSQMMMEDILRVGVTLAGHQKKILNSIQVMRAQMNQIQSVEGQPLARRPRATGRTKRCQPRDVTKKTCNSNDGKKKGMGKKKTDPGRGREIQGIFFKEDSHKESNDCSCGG
Procedure: as §1

MLK4 = MLK4 (Homo sapiens, UniProt Q5TCX8)
Procedure: as §1

[1] = 1 h, 1 μM WEL028, 1 h preincubation
[2] = 1 µM, ZLYTE, ATP Km app, listed as WEL028, 1 µM
[3] = 1 µM, LanthaScreen Binding, listed as WEL028, 1 µM
[4] = 1 h, log[inhibitor] (M) -5.00, LanthaScreen Binding
[5] = 1 h, log[inhibitor] (M) -5.48, LanthaScreen Binding
[6] = 1 h, log[inhibitor] (M) -5.95, LanthaScreen Binding
[7] = 1 h, log[inhibitor] (M) -6.43, LanthaScreen Binding
[8] = 1 h, log[inhibitor] (M) -6.91, LanthaScreen Binding
[9] = 1 h, log[inhibitor] (M) -7.86, LanthaScreen Binding
[10] = IC50 on that kinase divided by IC50 on FES^S700C
[11] = read-out: Inhibition at 1 µM (%), 1 µM, LanthaScreen Binding

Chain of STK33 (Q9BYT3 whole entry, species assumed): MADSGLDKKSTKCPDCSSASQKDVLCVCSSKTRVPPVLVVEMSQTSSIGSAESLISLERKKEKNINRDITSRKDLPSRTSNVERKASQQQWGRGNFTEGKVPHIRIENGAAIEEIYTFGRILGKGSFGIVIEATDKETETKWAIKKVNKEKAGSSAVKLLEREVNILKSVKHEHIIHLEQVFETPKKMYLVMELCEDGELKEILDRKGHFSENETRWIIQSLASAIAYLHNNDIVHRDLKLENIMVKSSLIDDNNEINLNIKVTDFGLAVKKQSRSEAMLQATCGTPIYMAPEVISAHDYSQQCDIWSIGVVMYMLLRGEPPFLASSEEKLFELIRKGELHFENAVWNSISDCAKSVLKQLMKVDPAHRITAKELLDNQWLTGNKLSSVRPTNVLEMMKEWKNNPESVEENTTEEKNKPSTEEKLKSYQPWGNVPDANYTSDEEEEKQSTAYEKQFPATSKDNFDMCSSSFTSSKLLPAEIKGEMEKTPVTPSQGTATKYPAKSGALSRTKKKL
Chain of HIPK1 (Myak) (Q86Z02 whole entry): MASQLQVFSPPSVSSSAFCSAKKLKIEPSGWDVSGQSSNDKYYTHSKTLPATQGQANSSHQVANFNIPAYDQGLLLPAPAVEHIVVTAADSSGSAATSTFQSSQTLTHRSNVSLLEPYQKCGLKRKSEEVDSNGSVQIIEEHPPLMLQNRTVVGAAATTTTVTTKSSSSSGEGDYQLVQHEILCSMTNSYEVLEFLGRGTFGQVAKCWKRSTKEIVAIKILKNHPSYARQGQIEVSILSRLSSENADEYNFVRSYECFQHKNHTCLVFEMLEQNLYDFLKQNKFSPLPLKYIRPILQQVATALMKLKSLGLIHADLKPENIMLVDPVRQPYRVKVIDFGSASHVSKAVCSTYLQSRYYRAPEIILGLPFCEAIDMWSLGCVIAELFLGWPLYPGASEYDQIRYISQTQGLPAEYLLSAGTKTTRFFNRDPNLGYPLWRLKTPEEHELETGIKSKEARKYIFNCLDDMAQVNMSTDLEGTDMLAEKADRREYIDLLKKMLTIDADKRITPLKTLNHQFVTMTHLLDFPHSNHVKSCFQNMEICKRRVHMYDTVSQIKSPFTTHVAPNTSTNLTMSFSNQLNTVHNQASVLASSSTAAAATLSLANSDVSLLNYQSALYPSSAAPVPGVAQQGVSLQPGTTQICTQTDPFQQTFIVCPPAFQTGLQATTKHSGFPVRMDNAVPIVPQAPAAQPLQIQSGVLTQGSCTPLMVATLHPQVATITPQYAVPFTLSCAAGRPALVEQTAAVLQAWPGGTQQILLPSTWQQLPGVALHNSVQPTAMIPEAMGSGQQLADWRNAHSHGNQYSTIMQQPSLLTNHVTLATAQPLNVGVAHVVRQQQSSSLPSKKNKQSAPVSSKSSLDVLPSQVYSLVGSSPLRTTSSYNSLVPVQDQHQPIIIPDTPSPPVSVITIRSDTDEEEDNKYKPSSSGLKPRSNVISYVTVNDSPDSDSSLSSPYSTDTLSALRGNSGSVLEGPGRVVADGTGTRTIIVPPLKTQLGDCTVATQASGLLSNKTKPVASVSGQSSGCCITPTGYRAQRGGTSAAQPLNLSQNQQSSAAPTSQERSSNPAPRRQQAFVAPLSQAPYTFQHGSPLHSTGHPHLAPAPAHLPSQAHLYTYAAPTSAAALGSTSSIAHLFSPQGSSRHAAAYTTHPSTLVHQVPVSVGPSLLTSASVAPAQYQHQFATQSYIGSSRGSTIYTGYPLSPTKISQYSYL
Chain of MAPK9 (JNK2) (P45984 whole entry): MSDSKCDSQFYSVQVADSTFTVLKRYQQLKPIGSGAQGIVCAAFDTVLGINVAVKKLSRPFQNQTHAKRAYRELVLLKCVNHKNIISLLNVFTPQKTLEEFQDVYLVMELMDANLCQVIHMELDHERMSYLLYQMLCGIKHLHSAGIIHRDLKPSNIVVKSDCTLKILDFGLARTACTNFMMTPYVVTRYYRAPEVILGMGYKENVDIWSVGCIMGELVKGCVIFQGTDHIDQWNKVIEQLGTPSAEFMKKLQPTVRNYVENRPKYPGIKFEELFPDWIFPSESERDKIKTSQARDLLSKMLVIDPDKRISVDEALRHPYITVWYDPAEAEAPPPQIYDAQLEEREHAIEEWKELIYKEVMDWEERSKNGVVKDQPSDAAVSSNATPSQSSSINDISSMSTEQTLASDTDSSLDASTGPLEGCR
Chain of TESK1 (Q15569 whole entry): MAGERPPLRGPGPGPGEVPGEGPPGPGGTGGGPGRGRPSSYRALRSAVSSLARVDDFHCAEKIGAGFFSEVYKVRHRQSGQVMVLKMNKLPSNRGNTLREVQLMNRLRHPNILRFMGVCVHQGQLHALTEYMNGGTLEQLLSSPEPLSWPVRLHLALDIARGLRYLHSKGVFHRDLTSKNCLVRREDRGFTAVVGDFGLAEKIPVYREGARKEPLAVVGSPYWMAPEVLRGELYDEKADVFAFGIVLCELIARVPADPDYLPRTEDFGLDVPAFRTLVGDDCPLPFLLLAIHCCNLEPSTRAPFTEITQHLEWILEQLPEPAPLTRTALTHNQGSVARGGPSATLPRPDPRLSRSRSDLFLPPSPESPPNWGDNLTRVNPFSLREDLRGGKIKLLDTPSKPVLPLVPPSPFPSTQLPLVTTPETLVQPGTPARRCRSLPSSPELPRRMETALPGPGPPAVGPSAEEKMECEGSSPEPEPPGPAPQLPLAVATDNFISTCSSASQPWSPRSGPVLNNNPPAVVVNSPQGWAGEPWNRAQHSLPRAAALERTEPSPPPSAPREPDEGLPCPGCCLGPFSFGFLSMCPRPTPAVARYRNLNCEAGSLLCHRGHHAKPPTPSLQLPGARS
Chain of MLK4 (Q5TCX8 whole entry): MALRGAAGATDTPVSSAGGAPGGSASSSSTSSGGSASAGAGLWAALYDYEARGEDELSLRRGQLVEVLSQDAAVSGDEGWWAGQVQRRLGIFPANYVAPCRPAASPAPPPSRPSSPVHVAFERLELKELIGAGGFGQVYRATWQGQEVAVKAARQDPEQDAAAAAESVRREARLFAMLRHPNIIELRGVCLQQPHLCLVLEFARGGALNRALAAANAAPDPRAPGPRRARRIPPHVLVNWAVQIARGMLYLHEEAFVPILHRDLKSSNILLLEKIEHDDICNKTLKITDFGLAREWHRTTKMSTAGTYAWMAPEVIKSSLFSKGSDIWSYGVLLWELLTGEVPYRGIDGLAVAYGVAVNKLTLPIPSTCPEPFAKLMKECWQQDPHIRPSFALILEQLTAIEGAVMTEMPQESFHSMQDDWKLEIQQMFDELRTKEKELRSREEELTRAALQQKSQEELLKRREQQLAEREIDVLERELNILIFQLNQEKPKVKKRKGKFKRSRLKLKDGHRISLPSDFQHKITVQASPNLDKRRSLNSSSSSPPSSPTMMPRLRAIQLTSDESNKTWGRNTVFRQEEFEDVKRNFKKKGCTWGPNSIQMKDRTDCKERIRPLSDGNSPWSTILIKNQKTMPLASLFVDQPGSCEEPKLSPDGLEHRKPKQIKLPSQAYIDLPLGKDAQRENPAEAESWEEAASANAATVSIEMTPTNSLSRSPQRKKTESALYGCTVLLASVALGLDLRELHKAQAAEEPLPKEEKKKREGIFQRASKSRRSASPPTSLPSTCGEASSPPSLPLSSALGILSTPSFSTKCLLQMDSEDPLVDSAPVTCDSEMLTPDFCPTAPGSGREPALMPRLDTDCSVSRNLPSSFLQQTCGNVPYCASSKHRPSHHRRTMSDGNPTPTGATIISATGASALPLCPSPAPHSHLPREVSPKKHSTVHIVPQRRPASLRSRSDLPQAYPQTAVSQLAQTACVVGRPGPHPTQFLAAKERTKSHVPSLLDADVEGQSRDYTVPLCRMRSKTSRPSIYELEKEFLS
Chain of PRKACG (PRKAC gamma) (P22612 whole entry): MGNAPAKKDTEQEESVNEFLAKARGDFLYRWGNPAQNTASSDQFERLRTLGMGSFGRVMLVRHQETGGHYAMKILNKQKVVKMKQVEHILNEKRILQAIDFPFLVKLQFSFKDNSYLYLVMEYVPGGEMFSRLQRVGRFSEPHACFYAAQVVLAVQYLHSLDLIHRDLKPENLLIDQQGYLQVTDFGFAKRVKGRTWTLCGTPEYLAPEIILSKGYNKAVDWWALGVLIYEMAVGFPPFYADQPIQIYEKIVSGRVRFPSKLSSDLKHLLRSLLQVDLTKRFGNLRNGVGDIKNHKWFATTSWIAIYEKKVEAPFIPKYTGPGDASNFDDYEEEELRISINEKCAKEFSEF
Chain of MKNK2 (MNK2) (Q9HBH9 whole entry, species assumed): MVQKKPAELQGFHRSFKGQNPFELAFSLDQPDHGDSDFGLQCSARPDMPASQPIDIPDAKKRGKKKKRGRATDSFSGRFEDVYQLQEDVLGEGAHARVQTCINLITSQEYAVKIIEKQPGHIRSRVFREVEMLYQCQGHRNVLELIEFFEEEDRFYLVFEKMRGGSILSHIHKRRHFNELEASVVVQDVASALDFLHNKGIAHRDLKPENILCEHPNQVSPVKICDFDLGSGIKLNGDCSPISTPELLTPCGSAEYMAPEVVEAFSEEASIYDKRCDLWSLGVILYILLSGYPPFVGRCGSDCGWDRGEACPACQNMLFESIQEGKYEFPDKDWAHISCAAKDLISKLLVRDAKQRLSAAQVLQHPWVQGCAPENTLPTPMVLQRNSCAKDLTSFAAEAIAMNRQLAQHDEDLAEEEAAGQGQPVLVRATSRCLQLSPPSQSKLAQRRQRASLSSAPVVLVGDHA

In the case of C#CCOc1ccc(Nc2ncc(Cl)c(Nc3ccccc3NC(=O)C=C)n2)c(OC)c1 [Compound 6], the inhibition at 1 µM (HIPK1 (Myak); [1]) is reported as -4%, the “Inhibition at 1 µM (%)” value (HIPK1 (Myak)) is reported as -2% and the “Inhibition at 1 µM (%)” value (HIPK1 (Myak); listed as WEL028, 1 µM) is reported as -6%. For the same compound, the “Inhibition (%)” value (SYK; 1 μM WEL028, 1 h preincubation) was “did not inhibit”, the “Inhibition at 1 µM (%)” value (SYK; [2]) was 1% and 5% and the inhibition at 1 µM (CDK1/cyclin B) was 1%. For the same compound, the inhibition at 1 µM (LYN B; [1]) was 1%, the “Inhibition at 1 µM (%)” value (LYN B) was 3% and the “Inhibition at 1 µM (%)” value (LYN B; listed as WEL028, 1 µM) was 0%. For the same compound, the “Inhibition (%)” value (MAPK9 (JNK2); 1 μM WEL028, 1 h preincubation) was 2%, the “Inhibition at 1 µM (%)” value (MAPK9 (JNK2); MAPK9 (JNK2), 1 µM, ZLYTE, ATP 100, listed as WEL028, 1 µM) was -1% and 5% and the inhibition at 1 µM (PRKACG (PRKAC gamma); [1]) was 3%. The “Inhibition at 1 µM (%)” value (PRKACG (PRKAC gamma)) was 2%, the “Inhibition at 1 µM (%)” value (PRKACG (PRKAC gamma); listed as WEL028, 1 µM) was 5% and the inhibition at 1 µM (INSR; 1 h) was 11%. For the same compound, the inhibition at 1 µM (INSR; read-out: Inhibition at 1 µM (%)) was 11%, the IC50 (STK33) was 1 µM and the “Inhibition at 1 µM (%)” value (STK33; [3]) was 61%. It also gave an inhibition at 1 µM (STK33; [1]) of 60%, an inhibition at 10 µM (STK33; [4]) of 33% and an inhibition at 3.311 µM (STK33; [5]) of 58%. For the same compound, the inhibition at 1.122 µM (STK33; [6]) was 69%, the inhibition at 0.3715 µM (STK33; [7]) was 43% and the inhibition at 0.123 µM (STK33; [8]) was 23%. For the same compound, the inhibition at 0.04074 µM (STK33; 1 h, log[inhibitor] (M) -7.39, LanthaScreen Binding) was 19%, the inhibition at 0.0138 µM (STK33; [9]) was 6% and the inhibition at 0.004571 µM (STK33; 1 h, log[inhibitor] (M) -[…], LanthaScreen Binding) was 7%. The Apparent fold selectivity (STK33; [10]) was 254 fold, the inhibition at 1 µM (STK33; [11]) was 59% and the “Inhibition at 1 µM (%)” value (SRMS (Srm); [2]) was 8%. For the same compound, the inhibition at 1 µM (SRMS (Srm); [1]) was 7%, the inhibition at 1 µM (SRMS (Srm); read-out: Inhibition at 1 µM (%), 1 µM, ZLYTE, ATP Km app) was 6% and the inhibition at 1 µM (PRKCA (PKC alpha); [1]) was 14%. For the same compound, the “Inhibition at 1 µM (%)” value (PRKCA (PKC alpha); PRKCA (PKC alpha), 1 µM, ZLYTE, ATP Km app, listed as WEL028, 1 µM) was 10%, the inhibition at 1 µM (PRKCA (PKC alpha); read-out: Inhibition at 1 µM (%), PRKCA (PKC alpha), 1 µM, ZLYTE, ATP Km app) was 19% and the IC50 (MKNK2 (MNK2)) was 0.1 µM. It also gave an inhibition at 1 µM (MKNK2 (MNK2); [1]) of 93%, an inhibition at 10 µM (MKNK2 (MNK2); [4]) of 83% and an inhibition at 3.311 µM (MKNK2 (MNK2); [5]) of 97%. It also gave an inhibition at 1.122 µM (MKNK2 (MNK2); [6]) of 94%, an inhibition at 0.3715 µM (MKNK2 (MNK2); [7]) of 82% and an inhibition at 0.123 µM (MKNK2 (MNK2); [8]) of 54%. For the same compound, the inhibition at 0.0138 µM (MKNK2 (MNK2); [9]) was 13%, the inhibition at 0.0004898 µM (MKNK2 (MNK2); 1 h, log[inhibitor] (M) -9.31, LanthaScreen Binding) was 4% and the Apparent fold selectivity (MKNK2 (MNK2); [10]) was 23 fold. For the same compound, the “Inhibition at 1 µM (%)” value (MKNK2 (MNK2); MKNK2 (MNK2), 1 µM, LanthaScreen Binding, listed as WEL028, 1 µM) was 96%, the inhibition at 1 µM (MKNK2 (MNK2); read-out: Inhibition at 1 µM (%), MKNK2 (MNK2), 1 µM, LanthaScreen Binding) was 89% and the “Inhibition at 1 µM (%)” value (TESK1; [3]) was 9%. For the same compound, the inhibition at 1 µM (TESK1; [1]) was 10%, the inhibition at 1 µM (TESK1; [11]) was 10% and the “Inhibition (%)” value (EPHB2; 1 μM WEL028, 1 h preincubation) was 4%. The “Inhibition at 1 µM (%)” value (EPHB2) was 2%, the “Inhibition at 1 µM (%)” value (EPHB2; listed as WEL028, 1 µM) was 5% and the inhibition at 1 µM (MLK4; [1]) was 3%. For the same compound, the “Inhibition at 1 µM (%)” value (MLK4; MLK4, 1 µM, LanthaScreen Binding, listed as WEL028, 1 µM) was 6% and 0%.
